Data taken from the NIST ThermoML archive (doi:10.1021/je025660t).
± gives the expanded uncertainty stated by the source.

Settings: Liquid

With `COCC(C)O` (centres undefined) [1-methoxy-2-propanol] the “vapor or sublimation pressure” value (331.47 K) was 9.246 ± 0.14 kPa, the “vapor or sublimation pressure” value (333.15 K) was 10.01 ± 0.14 kPa and the “vapor or sublimation pressure” value (339.12 K) was 13.11 ± 0.14 kPa. The “vapor or sublimation pressure” value (343.15 K) was 15.79 ± 0.14 kPa, the “vapor or sublimation pressure” value (347.71 K) was 19.25 ± 0.15 kPa and the “vapor or sublimation pressure” value (351.56 K) was 22.64 ± 0.15 kPa. The “vapor or sublimation pressure” value (353.15 K) was 24.17 ± 0.15 kPa, the “vapor or sublimation pressure” value (355.59 K) was 26.69 ± 0.16 kPa and the “vapor or sublimation pressure” value (358.15 K) was 29.57 ± 0.16 kPa. For the same compound, the “vapor or sublimation pressure” value (360.78 K) was 32.79 ± 0.17 kPa, the “vapor or sublimation pressure” value (363.01 K) was 35.74 ± 0.17 kPa and the “vapor or sublimation pressure” value (368.23 K) was 43.48 ± 0.18 kPa. The “vapor or sublimation pressure” value (373.31 K) was 52.31 ± 0.19 kPa.
With `CCCCCN` [1-pentanamine] the “vapor or sublimation pressure” value (322.61 K) was 13.08 ± 0.07 kPa, the “vapor or sublimation pressure” value (328.37 K) was 16.87 ± 0.073 kPa and the “vapor or sublimation pressure” value (333.14 K) was 20.65 ± 0.075 kPa. The “vapor or sublimation pressure” value (338.07 K) was 25.25 ± 0.078 kPa, the “vapor or sublimation pressure” value (340.66 K) was 27.99 ± 0.08 kPa and the “vapor or sublimation pressure” value (343.16 K) was 30.85 ± 0.082 kPa. The “vapor or sublimation pressure” value (345.56 K) was 33.81 ± 0.084 kPa, the “vapor or sublimation pressure” value (348.11 K) was 37.22 ± 0.086 kPa and the “vapor or sublimation pressure” value (353.15 K) was 44.75 ± 0.091 kPa. For the same compound, the “vapor or sublimation pressure” value (358.15 K) was 53.38 ± 0.097 kPa, the “vapor or sublimation pressure” value (363.14 K) was 63.27 ± 0.1 kPa and the “vapor or sublimation pressure” value (370.62 K) was 80.72 ± 0.12 kPa. The “vapor or sublimation pressure” value (377.93 K) was 101.33 ± 0.13 kPa.
For `CC#N` [acetonitrile], the “vapor or sublimation pressure” value (302.25 K) was 14.15 ± 0.071 kPa, the “vapor or sublimation pressure” value (307.09 K) was 17.52 ± 0.073 kPa and the “vapor or sublimation pressure” value (311.49 K) was 21.13 ± 0.076 kPa. The “vapor or sublimation pressure” value (313.15 K) was 22.65 ± 0.077 kPa, the “vapor or sublimation pressure” value (316.27 K) was 25.72 ± 0.079 kPa and the “vapor or sublimation pressure” value (318.18 K) was 27.78 ± 0.08 kPa. The “vapor or sublimation pressure” value (320.65 K) was 30.64 ± 0.082 kPa, the “vapor or sublimation pressure” value (323.16 K) was 33.8 ± 0.084 kPa and the “vapor or sublimation pressure” value (326.16 K) was 37.9 ± 0.087 kPa. The “vapor or sublimation pressure” value (328.5 K) was 41.38 ± 0.089 kPa, the “vapor or sublimation pressure” value (331.15 K) was 45.62 ± 0.092 kPa and the “vapor or sublimation pressure” value (333.15 K) was 49.06 ± 0.094 kPa. For the same compound, the “vapor or sublimation pressure” value (335.84 K) was 54.01 ± 0.097 kPa, the “vapor or sublimation pressure” value (338.15 K) was 58.58 ± 0.1 kPa and the “vapor or sublimation pressure” value (343.18 K) was 69.62 ± 0.11 kPa. The “vapor or sublimation pressure” value (348.25 K) was 82.37 ± 0.12 kPa and the “vapor or sublimation pressure” value (353.1 K) was 96.34 ± 0.12 kPa.
In the case of `CCC#N` [propanenitrile], the “vapor or sublimation pressure” value (309.38 K) is reported as 10.59 ± 0.069 kPa, the “vapor or sublimation pressure” value (311.56 K) is reported as 11.55 ± 0.2 kPa and the “vapor or sublimation pressure” value (313.15 K) is reported as 12.55 ± 0.07 kPa. The “vapor or sublimation pressure” value (315.89 K) was 14.14 ± 0.071 kPa, the “vapor or sublimation pressure” value (318.35 K) was 15.71 ± 0.072 kPa and the “vapor or sublimation pressure” value (320.51 K) was 17.22 ± 0.073 kPa. For the same compound, the “vapor or sublimation pressure” value (323.15 K) was 19.22 ± 0.074 kPa, the “vapor or sublimation pressure” value (325.74 K) was 21.35 ± 0.076 kPa and the “vapor or sublimation pressure” value (328.27 K) was 23.64 ± 0.077 kPa. For the same compound, the “vapor or sublimation pressure” value (330.82 K) was 26.11 ± 0.079 kPa, the “vapor or sublimation pressure” value (333.15 K) was 28.57 ± 0.08 kPa and the “vapor or sublimation pressure” value (335.82 K) was 31.64 ± 0.082 kPa. The “vapor or sublimation pressure” value (338.22 K) was 34.61 ± 0.085 kPa, the “vapor or sublimation pressure” value (343.08 K) was 41.33 ± 0.089 kPa and the “vapor or sublimation pressure” value (348.09 K) was 49.32 ± 0.094 kPa. The “vapor or sublimation pressure” value (353.15 K) was 58.6 ± 0.1 kPa.
